System: MV-4-11 cells
Assay: Gene expression microarray analysis (Affymetrix PrimeView) and GSEA
Type: cell-based, human
Set-up: RFU PODN (11730768_x_at) / Fold change /veh PODN (11730768_x_at) / RFU LINC00158 (11744669_a_at) / Fold change /veh LINC00158 (11744669_a_at) / RFU DUSP10 (11751237_a_at) / Fold change /veh DUSP10 (11751237_a_at) / RFU ID3 (11757404_x_at) / Fold change /veh ID3 (11757404_x_at) / RFU PLEKHG5 (11737974_s_at) / Fold change /veh PLEKHG5 (11737974_s_at) / RFU LRRC4B (11730491_at) / Fold change /veh LRRC4B (11730491_at) / RFU GIMAP4 (11747438_a_at) / Fold change /veh GIMAP4 (11747438_a_at) / RFU KRT8 (11758183_x_at) / Fold change /veh KRT8 (11758183_x_at) / RFU CNN1 (11734310_a_at) / Fold change /veh CNN1 (11734310_a_at) / RFU VPS37D (11726825_at) / Fold change /veh VPS37D (11726825_at) / RFU C10orf10 (11716522_x_at) / Fold change /veh C10orf10 (11716522_x_at) / RFU KIR2DL2 /// KIR2DL4 /// KIR2DL5A /// KIR2DL5B /// KIR2DS1 /// KIR2DS2 /// KIR2DS3 /// KIR2DS4 /// KIR3DL3 /// KIR3DL3 /// KIR3DS1 (11738374_at) / Fold change /veh KIR2DL2 /// KIR2DL4 /// KIR2DL5A /// KIR2DL5B /// KIR2DS1 /// KIR2DS2 /// KIR2DS3 /// KIR2DS4 /// KIR3DL3 /// KIR3DL3 /// KIR3DS1 (11738374_at) / RFU C1QL1 (11718748_at) / Fold change /veh C1QL1 (11718748_at) / RFU TMPRSS4 (11747572_a_at) / Fold change /veh TMPRSS4 (11747572_a_at) / RFU HAMP (11756126_x_at) / Fold change /veh HAMP (11756126_x_at) / RFU RNFT2 (11725882_a_at) / Fold change /veh RNFT2 (11725882_a_at) / RFU NR4A2 (11747474_a_at) / Fold change /veh NR4A2 (11747474_a_at) / RFU ABCC12 (11746883_a_at) / Fold change /veh ABCC12 (11746883_a_at) / RFU TMEM136 (11760407_x_at) / Fold change /veh TMEM136 (11760407_x_at) / RFU CLDN22 /// WWC2 (11732394_at) / Fold change /veh CLDN22 /// WWC2 (11732394_at) / RFU HLA-DPB1 (11760878_x_at) / Fold change /veh HLA-DPB1 (11760878_x_at) / RFU SPINT1 (11716480_a_at) / Fold change /veh SPINT1 (11716480_a_at) / RFU GAP43 (11754022_s_at) / Fold change /veh GAP43 (11754022_s_at) / RFU A4GNT (11735810_at) / Fold change /veh A4GNT (11735810_at) / RFU PRB3 (11715151_x_at) / Fold change /veh PRB3 (11715151_x_at) / RFU TUBB4B (11761932_at) / Fold change /veh TUBB4B (11761932_at) / RFU CAPN14 (11732068_a_at) / Fold change /veh CAPN14 (11732068_a_at) / RFU TMCC2 (11721928_a_at) / Fold change /veh TMCC2 (11721928_a_at) / RFU IRGQ (11745062_a_at) / Fold change /veh IRGQ (11745062_a_at) / RFU FAM174B (11720279_a_at) / Fold change /veh FAM174B (11720279_a_at) / RFU TMPRSS4 (11748680_a_at) / Fold change /veh TMPRSS4 (11748680_a_at) / RFU FAM212B (11763350_a_at) / Fold change /veh FAM212B (11763350_a_at) / RFU PLEKHG5 (11743358_a_at) / Fold change /veh PLEKHG5 (11743358_a_at) / RFU ZSCAN30 (11745921_a_at) / Fold change /veh ZSCAN30 (11745921_a_at) / RFU CMKLR1 (11741424_a_at) / Fold change /veh CMKLR1 (11741424_a_at) / RFU LOC101060620 /// MAPK8IP1 (11723275_at) / Fold change /veh LOC101060620 /// MAPK8IP1 (11723275_at) / RFU SPTSSB (11747773_x_at) / Fold change /veh SPTSSB (11747773_x_at) / RFU PRSS12 (11739890_at) / Fold change /veh PRSS12 (11739890_at) / RFU BIN1 (11741810_x_at) / Fold change /veh BIN1 (11741810_x_at) / RFU WNT11 (11732464_a_at) / Fold change /veh WNT11 (11732464_a_at) / RFU C10orf10 (11716521_a_at) / Fold change /veh C10orf10 (11716521_a_at) / RFU C5orf56 (11738089_at) / Fold change /veh C5orf56 (11738089_at) / RFU CYB561 (11721691_x_at) / Fold change /veh CYB561 (11721691_x_at) / RFU ANKRD19P (11752326_a_at) / Fold change /veh ANKRD19P (11752326_a_at) / RFU OR2T12 /// OR2T33 /// OR2T8 (11738714_s_at) / Fold change /veh OR2T12 /// OR2T33 /// OR2T8 (11738714_s_at) / RFU VCAN (11748164_a_at) / Fold change /veh VCAN (11748164_a_at) / RFU JSRP1 (11732532_at) / Fold change /veh JSRP1 (11732532_at) / RFU KRTAP10-11 (11738290_x_at) / Fold change /veh KRTAP10-11 (11738290_x_at) / RFU MYO3A (11730013_a_at) / Fold change /veh MYO3A (11730013_a_at) / RFU EBF3 (11725865_a_at) / Fold change /veh EBF3 (11725865_a_at) / RFU CAMK2N1 (11719241_x_at) / Fold change /veh CAMK2N1 (11719241_x_at) / RFU C5orf56 (11738088_a_at) / Fold change /veh C5orf56 (11738088_a_at) / RFU OLFML3 (11715873_a_at) / Fold change /veh OLFML3 (11715873_a_at) / RFU LOC100653217 /// NTM (11731650_a_at) / Fold change /veh LOC100653217 /// NTM (11731650_a_at) / RFU MAPK11 (11762145_a_at) / Fold change /veh MAPK11 (11762145_a_at) / RFU FIZ1 (11724087_x_at) / Fold change /veh FIZ1 (11724087_x_at) / RFU OASL (11726364_x_at) / Fold change /veh OASL (11726364_x_at) / RFU SOX15 (11748057_x_at) / Fold change /veh SOX15 (11748057_x_at) / RFU CD79A (11719716_a_at) / Fold change /veh CD79A (11719716_a_at) / RFU HIST1H1D (11736915_at) / Fold change /veh HIST1H1D (11736915_at) / RFU CASKIN2 (11723855_a_at) / Fold change /veh CASKIN2 (11723855_a_at) / RFU LOC730098 (11760151_x_at) / Fold change /veh LOC730098 (11760151_x_at) / RFU OR4N2 (11742367_at) / Fold change /veh OR4N2 (11742367_at) / RFU PRRT2 (11749266_a_at) / Fold change /veh PRRT2 (11749266_a_at) / RFU SNX32 (11753110_a_at) / Fold change /veh SNX32 (11753110_a_at) / RFU CDHR5 (11726645_a_at) / Fold change /veh CDHR5 (11726645_a_at) / RFU RCAN1 (11760418_a_at) / Fold change /veh RCAN1 (11760418_a_at) / RFU FAM167A (11723789_a_at) / Fold change /veh FAM167A (11723789_a_at) / RFU FAM26E (11764081_at) / Fold change /veh FAM26E (11764081_at) / RFU ISYNA1 (11749810_s_at) / Fold change /veh ISYNA1 (11749810_s_at) / RFU ACY1 (11761880_at) / Fold change /veh ACY1 (11761880_at) / RFU 11764098_at / Fold change /veh 11764098_at / RFU SAMD14 (11745864_x_at) / Fold change /veh SAMD14 (11745864_x_at) / RFU NPB (11741838_a_at) / Fold change /veh NPB (11741838_a_at) / RFU TMPRSS6 (11731388_a_at) / Fold change /veh TMPRSS6 (11731388_a_at) / RFU KRTAP10-2 (11738614_at) / Fold change /veh KRTAP10-2 (11738614_at) / RFU ARHGAP8 /// PRR5-ARHGAP8 (11727945_x_at) / Fold change /veh ARHGAP8 /// PRR5-ARHGAP8 (11727945_x_at) / RFU KRTAP5-7 /// NADSYN1 (11734609_at) / Fold change /veh KRTAP5-7 /// NADSYN1 (11734609_at) / RFU RASL12 (11751679_a_at) / Fold change /veh RASL12 (11751679_a_at) / RFU CDKN2B (11736163_a_at) / Fold change /veh CDKN2B (11736163_a_at) / RFU PRF1 (11729649_at) / Fold change /veh PRF1 (11729649_at) / RFU, ZNF638 /// ZNF638-IT1 / Fold change vs veh, ZNF638 /// ZNF638-IT1 / RFU, PANK3 / Fold change vs veh, PANK3 / RFU, SH3YL1 / Fold change vs veh, SH3YL1 / RFU, ZEB2 / Fold change vs veh, ZEB2 / RFU, NRIP1 / Fold change vs veh, NRIP1 / RFU, PTTG1IP / Fold change vs veh, PTTG1IP / RFU, CAPN2 / Fold change vs veh, CAPN2 / RFU, MED14 / Fold change vs veh, MED14 / RFU, SNORA58 / Fold change vs veh, SNORA58 / RFU, C1orf63 / Fold change vs veh, C1orf63 / RFU, LRRFIP1 / Fold change vs veh, LRRFIP1 / RFU, NDUFAF7 / Fold change vs veh, NDUFAF7 / RFU, SLC12A2 / Fold change vs veh, SLC12A2 / RFU, IBTK / Fold change vs veh, IBTK / RFU, ESF1 / Fold change vs veh, ESF1 / Fold change vs veh, TMEM50B / RFU, TAOK1 / Fold change vs veh, TAOK1 / RFU, ACBD3 / Fold change vs veh, ACBD3 / RFU, TMA16 / Fold change vs veh, TMA16 / RFU, RWDD3 / Fold change vs veh, RWDD3 / RFU, BCAT1 / Fold change vs veh, BCAT1 / RFU, EDEM3 / Fold change vs veh, EDEM3 / RFU, TMEM33 / Fold change vs veh, TMEM33 / RFU, WDR75 / Fold change vs veh, WDR75 / RFU, AHCTF1 / Fold change vs veh, AHCTF1 / RFU, TFRC / Fold change vs veh, TFRC / RFU, ZDHHC17 / Fold change vs veh, ZDHHC17 / RFU, NOM1 / Fold change vs veh, NOM1 / RFU, ARL8B / Fold change vs veh, ARL8B / RFU, ZBTB11 / Fold change vs veh, ZBTB11 / RFU, TAMM41 / Fold change vs veh, TAMM41 / RFU, KIAA1704 /// LOC100996395 / Fold change vs veh, KIAA1704 /// LOC100996395 / RFU, ING1 / Fold change vs veh, ING1 / RFU, TRMT61B / Fold change vs veh, TRMT61B / RFU, FUBP3 / Fold change vs veh, FUBP3 / RFU, TP53 / Fold change vs veh, TP53 / RFU, TNKS2 / Fold change vs veh, TNKS2 / RFU, ZFP14 / Fold change vs veh, ZFP14 / RFU, ACTR2 / Fold change vs veh, ACTR2 / RFU, PPP3R1 / Fold change vs veh, PPP3R1 / RFU, PIK3R1 / Fold change vs veh, PIK3R1 / RFU, HNRNPA1 / Fold change vs veh, HNRNPA1 / RFU, RNF170 / Fold change vs veh, RNF170 / RFU, ZNF28 / Fold change vs veh, ZNF28 / RFU, RNGTT / Fold change vs veh, RNGTT / RFU, OGT / Fold change vs veh, OGT / RFU, BRD1 / Fold change vs veh, BRD1 / RFU, MARS / Fold change vs veh, MARS / RFU, ZNF655 / Fold change vs veh, ZNF655 / RFU, FAHD1 / Fold change vs veh, FAHD1 / RFU, BDP1 / Fold change vs veh, BDP1 / RFU, LRRCC1 / Fold change vs veh, LRRCC1 / RFU, ARID1A / Fold change vs veh, ARID1A / RFU, ZNF146 / Fold change vs veh, ZNF146 / RFU, ZNF330 / Fold change vs veh, ZNF330 / RFU, GPN3 / Fold change vs veh, GPN3 / RFU, C9orf123 / Fold change vs veh, C9orf123 / RFU, N4BP2L2 / Fold change vs veh, N4BP2L2 / RFU, ARFIP1 / Fold change vs veh, ARFIP1 / RFU, FAM179B / Fold change vs veh, FAM179B / RFU, BCL10 / Fold change vs veh, BCL10 / RFU, UHRF1BP1L / Fold change vs veh, UHRF1BP1L / RFU, BET1 / Fold change vs veh, BET1 / RFU, CNOT2 / Fold change vs veh, CNOT2 / RFU, ZNF268 / Fold change vs veh, ZNF268 / Fold change vs veh, ZNF507 / RFU, DGCR2 / Fold change vs veh, DGCR2 / RFU, WDSUB1 / Fold change vs veh, WDSUB1 / Fold change vs veh, HSP90B1 /// MIR3652 / RFU, ADSS / Fold change vs veh, ADSS / RFU, GK / Fold change vs veh, GK / RFU, ZNF148 / Fold change vs veh, ZNF148 / RFU, TAF9 / Fold change vs veh, TAF9 / RFU, SLC1A5 / Fold change vs veh, SLC1A5 / RFU, SLMO2 / Fold change vs veh, SLMO2 / RFU, ABCC4 / Fold change vs veh, ABCC4 / RFU, LOC101060439 /// RAP1B / Fold change vs veh, LOC101060439 /// RAP1B / RFU, RFX7 / Fold change vs veh, RFX7 / RFU, GTPBP10 / Fold change vs veh, GTPBP10 / RFU, CNEP1R1 / Fold change vs veh, CNEP1R1 / RFU, BIVM-ERCC5 /// ERCC5 / Fold change vs veh, BIVM-ERCC5 /// ERCC5 / RFU, ILF3 / Fold change vs veh, ILF3 / RFU 11762660_at / Fold change /veh 11762660_at / RFU VCAN (11757783_s_at) / Fold change /veh VCAN (11757783_s_at) / RFU DDX43 (11728927_at) / Fold change /veh DDX43 (11728927_at) / RFU KRT8 (11758188_x_at) / Fold change /veh KRT8 (11758188_x_at) / RFU NKD1 (11759106_at) / Fold change /veh NKD1 (11759106_at) / RFU SRD5A1 (11742802_a_at) / Fold change /veh SRD5A1 (11742802_a_at) / RFU TPSAB1 /// TPSB2 (11721975_s_at) / Fold change /veh TPSAB1 /// TPSB2 (11721975_s_at) / RFU GSTM3 (11746129_a_at) / Fold change /veh GSTM3 (11746129_a_at) / RFU IL23R (11737362_x_at) / Fold change /veh IL23R (11737362_x_at) / RFU TMEM51 (11727254_a_at) / Fold change /veh TMEM51 (11727254_a_at) / RFU PIWIL2 (11732686_x_at) / Fold change /veh PIWIL2 (11732686_x_at) / RFU ORM1 (11744905_x_at) / Fold change /veh ORM1 (11744905_x_at) / RFU CCDC152 (11743942_at) / Fold change /veh CCDC152 (11743942_at) / RFU ECM1 (11717891_a_at) / Fold change /veh ECM1 (11717891_a_at) / RFU IL23R (11748794_a_at) / Fold change /veh IL23R (11748794_a_at) / RFU TNFAIP8L3 (11732012_x_at) / Fold change /veh TNFAIP8L3 (11732012_x_at) / RFU MBOAT4 (11741988_at) / Fold change /veh MBOAT4 (11741988_at) / RFU 11764193_at / Fold change /veh 11764193_at / RFU TMEM53 (11763286_at) / Fold change /veh TMEM53 (11763286_at) / RFU MAGEB2 (11727129_at) / Fold change /veh MAGEB2 (11727129_at) / RFU TMEM200A (11744735_a_at) / Fold change /veh TMEM200A (11744735_a_at) / RFU CCDC152 (11751479_a_at) / Fold change /veh CCDC152 (11751479_a_at) / RFU FAM211A (11726209_a_at) / Fold change /veh FAM211A (11726209_a_at) / RFU RGS16 (11746705_a_at) / Fold change /veh RGS16 (11746705_a_at) / RFU VCAN (11755009_s_at) / Fold change /veh VCAN (11755009_s_at) / RFU RHOB (11743442_s_at) / Fold change /veh RHOB (11743442_s_at) / RFU RGS16 (11720943_a_at) / Fold change /veh RGS16 (11720943_a_at) / RFU RGS16 (11720944_at) / Fold change /veh RGS16 (11720944_at) / RFU, VPS4B / Fold change vs veh, VPS4B / RFU, CREB1 / Fold change vs veh, CREB1 / RFU, DNAJC13 / Fold change vs veh, DNAJC13 / RFU, GNAQ / Fold change vs veh, GNAQ / RFU, CDK5R1 / Fold change vs veh, CDK5R1 / RFU, ZRANB3 / Fold change vs veh, ZRANB3 / RFU, CUL4A / Fold change vs veh, CUL4A / RFU, CCNY / Fold change vs veh, CCNY / RFU, UFL1 / Fold change vs veh, UFL1 / RFU, COG3 / Fold change vs veh, COG3 / RFU, DIAPH2 / Fold change vs veh, DIAPH2 / RFU, SKA2 / Fold change vs veh, SKA2 / RFU, AFF3 / Fold change vs veh, AFF3 / RFU, LMF1 / Fold change vs veh, LMF1 / RFU, IPO11 / Fold change vs veh, IPO11 / RFU, DFFB / Fold change vs veh, DFFB / RFU, FOXP1 / Fold change vs veh, FOXP1 / RFU, CARD8 / Fold change vs veh, CARD8 / RFU, STRN3 / Fold change vs veh, STRN3 / RFU, ADK / Fold change vs veh, ADK / RFU, RASSF2 / Fold change vs veh, RASSF2 / RFU, WIPF1 / Fold change vs veh, WIPF1 / RFU, LARP1B / Fold change vs veh, LARP1B / RFU, RASA1 / Fold change vs veh, RASA1 / RFU, RB1 / Fold change vs veh, RB1 / RFU, PPFIA1 / Fold change vs veh, PPFIA1 / RFU, MAT2A / Fold change vs veh, MAT2A / RFU, CCT5 / Fold change vs veh, CCT5 / RFU, WDR92 / Fold change vs veh, WDR92 / RFU, CUX1 / Fold change vs veh, CUX1 / RFU, TTC7A / Fold change vs veh, TTC7A / RFU, TMEM135 / Fold change vs veh, TMEM135 / RFU, DEPTOR / Fold change vs veh, DEPTOR / RFU, CPM / Fold change vs veh, CPM / RFU, DNAJB6 / Fold change vs veh, DNAJB6 / RFU, CACNA2D3 / Fold change vs veh, CACNA2D3 / RFU, DTX4 / Fold change vs veh, DTX4 / RFU, TFCP2 / Fold change vs veh, TFCP2 / RFU, GMCL1 /// GMCL1P1 / Fold change vs veh, GMCL1 /// GMCL1P1 / RFU, AEBP2 / Fold change vs veh, AEBP2 / RFU, SNHG1 /// SNORD22 /// SNORD25 /// SNORD26 /// SNORD27 /// SNORD28 /// SNORD29 /// SNORD31 / Fold change vs veh, SNHG1 /// SNORD22 /// SNORD25 /// SNORD26 /// SNORD27 /// SNORD28 /// SNORD29 /// SNORD31 / Fold change (Aza/veh), C12orf56 (ProbeSet 11735607_a_at) / Fold change (ACY-1035/veh), C12orf56 (ProbeSet 11735607_a_at) / Fold change (Aza/veh), FGFR1OP (ProbeSet 11751329_s_at) / Fold change (ACY-1035/veh), FGFR1OP (ProbeSet 11751329_s_at) / Fold change (Aza/veh), VPS36 (ProbeSet 11739960_a_at) / Fold change (ACY-1035/veh), VPS36 (ProbeSet 11739960_a_at) / RFU SYPL1 (11715823_x_at) / Fold change /veh SYPL1 (11715823_x_at) / RFU IGFBP7 (11715501_s_at) / Fold change /veh IGFBP7 (11715501_s_at) / RFU REEP3 (11722064_at) / Fold change /veh REEP3 (11722064_at) / RFU IGLL1 (11728026_x_at) / Fold change /veh IGLL1 (11728026_x_at): dose or concentration left out as unconfirmed
Settings: MV-4-11 cells, 48 hours

Nc1ncn([C@@H]2O[C@H](CO)[C@@H](O)[C@H]2O)c(=O)n1 [azacitidine]
Fold change /veh CAMK2N1 (11719241_x_at): 0.94

— publication PMC5218480 (PLoS ONE, 2017)
